In patent US6348317B1, “Fluorescent and DNA cleavage properties of peptide/dye conjugates” (The Arizona Board of Regents, priority 1999, dated 2002):
pKd: −log10 of the molar value.

Target: fluorescein labeled GRE2 sequence dsDNA (F-GRE2)
Experiment: Total fluorescence quenching (energy transfer) of fluorescein labeled DNA
Assay type: binding
Procedure: Fluorescence Measurements. Steady state fluorescence anisotropy measurements were carried out in 20 mM Tris (pH 7.9), 30 mM NaCl, 20 mM KCl, 1 mM MgCl2, and 5% glycerol. […] DNA samples used were either the non-labeled sequences shown in FIG. 2 or a fluorescein labeled duplex with a sequence matching GRE2 (FIG. 2).
For fluorescein labeled DNA measurements, the excitation wavelength was 491 nm and the emission was recorded at 521 nm with a 1.0 nm slit width. Titrations were performed holding the concentration of fluorescein-labeled DNA constant and increasing the concentration of TO, ZF or TO-ZF as indicated. To correct for the small amount of background fluorescence from TO in these measurements, control experiments were performed in parallel using DNA that was not fluorescein labeled, but was otherwise identical to the labeled DNA fragments. The thiazole orange fluorescence intensity measured in the control experiments was subtracted from the total fluorescence intensity for each data point. Under the excitation conditions of these measurements, the contribution to fluorescence by TO at 521 nm was less than 5% of the maximum fluorescence signal observed in the experiment. Even at the point in the titration where the maximum quenching of fluorescein fluorescence was observed (the point of lowest total fluorescence in the measurement), less than half of the fluorescence was due to TO, and this could accurately be removed by subtraction of the control value. Each point is an average of 60 measurements, and each titration was performed independently three times.
Total fluorescence data were collected in parallel to the anisotropy measurements and were calculated from raw data as the fluorescence intensity in the vertical plane plus two times the fluorescence intensity of the horizontal plane, (TF=Ivv+2Ivh). These values were used to determine the percent of the maximum fluorescence for each point along the titration and fit to equation 2. [formula] […]
Fluorescence changes upon binding of TO, ZF and TO-ZF to GRE containing duplex DNA. Equilibrium binding of the non-labeled zinc finger (ZF), unconjugated thiazole orange (TO) and thiazole orange-zinc finger conjugate (TO-ZF) to fluorescein labeled GRE2 sequence dsDNA was measured by both fluorescence anisotropy and total fluorescence. […] For fluorescein fluorescence, excitation was at 491 nm and emission was detected at 521 nm. […] Changes in the steady-state anisotropy of the fluorescein fluorescence from the labeled GRE sequence containing DNA (F-GRE2) can arise from two sources. […] By comparison, the amino acid zinc finger Xfin-31 was determined to have a dissociation constant of approximately 1 μM, M. S. Lee, et al., FEBS 279:289-294 (1991), whereas, the 66 amino acid zinc finger from GATA-1 has a dissociation constant of 10 nM. […]

pKd (1 nM F-GRE2, read-out: dissociation constant from quenching curve, two-state binding model): 7.85
Substance: TO-ZF: 29 amino acid single zinc finger from residues 438-465 of glucocorticoid receptor, thiazole orange coupled to a lysine ε-amine
change in total fluorescein fluorescence over the titration (excitation 491 nm, emission 521 nm): large decreases in steady state fluorescence
